# Patent US10646529B2, “Methods of obtaining natural products from the comestible fluids and methods of use” (BOARD OF TRUSTEES, RUTGERS, THE STATE UNIVERSITY OF NEW …, priority 2010, dated 2020)
# Assays:
# Format in all cases: physicochemical
# [1] = Sorption of 6-gingerol to full-fat soybean flour (HPLC-MS peak area); conditions: 6-gingerol 9 μg/ml in water, full-fat soybean flour 30 g/L, 10 ml, 5 minutes
# Experimental: 6-Gingerol (Sigma) was diluted in water to a concentration of 9 μg/ml. Full-fat soybean flour was added to the solution at a concentration of 30 g/L in a volume of 10 ml, mixed for 5 minutes and then centrifuged for 10 minutes at 4000 rpm. The supernatant was removed. Full-fat soybean flour was used as a control. Both the 6-gingerol solution before soybean flour treatment (i.e., plant juice) and that obtained after soybean flour treatment (i.e., plant liquor) were subjected to HPLC-MS; the injection volume for each sample was 10 μl.
# [2] = Sorption of sesquiterpene lactones from chicory root extract to defatted soybean flour (HPLC-MS peak area); conditions: chicory root water extract 50 ml, defatted soybean flour 100 g/L, 5 minutes
# Experimental: Dried chicory root was ground to a powder and 25 g was extracted in 500 ml of water for three hours in a 50° C. water bath with sonication. The water extract was separated from the plant material by filtration. Defatted soybean flour was mixed for 5 minutes with 50 ml of the chicory root extract at a concentration of 100 g/L followed by centrifugation (10 minutes, 15,000 rpm) and filtration of the supernatant. Untreated and soybean flour-treated chicory root extract were subjected to HPLC-MS; the injection volume for each sample was 10 μl. The amounts of the dihydrolactucin, lactucopicrin and dihydrolactucopicrin compounds present in the chicory root extract sorbed to the soybean flour were determined by calculating the percent decrease in peak area before and after treatment of the chicory extract with soybean flour.
# [3] = Sorption of caffeine from green tea by defatted soybean flour (HPLC-MS); conditions: green tea after SFDF 30 g/L, n=1
# Experimental: The amount of caffeine in the untreated and soybean flour-treated tea samples (n=1) was also tested. […] Caffeine is a psychoactive stimulant that provides health benefits beyond the familiar increase in alertness and energy associated with coffee and tea consumption. The untreated and flour-treated tea samples described above were diluted 10 times in 0.1% acetic acid (1 μL glacial acetic acid and 1 mL water). Samples were subject to HPLC-MS and caffeine was quantified against a caffeine standard curve.
# [4] = Sorption of resveratrol from grape juice by soybean flour (HPLC-MS)
# Experimental: Soybean flour (30 g/L) was added to 50 mL of Concord grape juice and mixed at room temperature for five minutes. The juice was separated from the flour by centrifugation and then filtered through a 0.22 μm syringe filter. The resveratrol content of the untreated and flour-treated juice samples (n=1) was quantified by HPLC-MS according to a previously published method (Wang et al., J. Agric. Food Chem., 50:431-435, 2002, the disclosure of which is incorporated herein by reference in its entirety.).
# The enriched substance was prepared as follows. Briefly, 2 ml of untreated or soybean flour-treated grape juice sample was mixed with 20 ml of methanol overnight and samples were then centrifuged at 2280 g for 5 minutes and the methanol portion was removed. The solid residue was washed with an additional 10 ml of methanol. Methanol supernatants were combined and evaporated using a rotary evaporator and the methanol-free samples were diluted in 10 ml of water for enzymatic hydrolysis with 30 mg β-D-glucosidase (2.3 units/mg). Each sample was then extracted four times with 7 ml of water-saturated ethyl acetate. Ethyl acetate extracts were combined and evaporated to dryness under vacuum using a rotary evaporator. Residues were dissolved in 1 ml of methanol/0.5% formic acid (7:3; v/v) for LC-MS analysis. Standards of resveratrol were prepared for LC-MS to generate standard curves and quantify the levels of each compound in juice samples.
# [5] = Sorption of quercetin from grape juice by soybean flour (HPLC-MS); conditions: 5 minutes, n=1; for % Quercetin Sorbed to SF / Concentration of Quercetin in Soybean flour: Concord grape juice 50 mL, soybean flour 30 g/L
# Experimental: Soybean flour (30 g/L) was added to 50 mL of Concord grape juice and mixed at room temperature for five minutes. The juice was separated from the flour by centrifugation and then filtered through a 0.22 μm syringe filter. Untreated and soybean flour-treated juice samples (n=1) were processed as described in Example 8 and the quercetin content of untreated and soybean flour-treated samples was determined by HPLC-MS. Quercetin is a polyphenolic flavonoid compound. More specifically, it is a flavonol known in the art to have anti-inflammatory and antioxidant properties, and it is expected to be useful in treating cancer. Quercetin is also known to have endurance-promoting effects.
# [6] = Concord grape juice 50 mL, soybean flour 30 g/L, 5 minutes, n=1
compound,measurement,setting,value
"CCCCC[C@H](O)CC(=O)CCc1ccc(O)c(OC)c1 [6-gingerol, 6-Gingerol]",% of 6-gingerol sorbed by soybean flour (percent decrease in peak area),[1],63%
lactucopicrin,% of compound sorbed by soybean flour from chicory root extract (percent decrease in peak area),[2],100%
Cn1c(=O)c2c(ncn2C)n(C)c1=O [caffeine],Caffeine Concentration,[3],383.1 mg/L
Oc1ccc(C=Cc2cc(O)cc(O)c2)cc1 [Resveratrol],Bound resveratrol (amount),[4]; 1.5 g soybean flour in 50 mL grape juice,88.8 mg
same,Resveratrol in Grape Juice,"[4]; Concord grape juice 50 mL after soybean flour 30 g/L, 5 minutes, n=1",325 ng/mL
same,% Resveratrol Sorbed to SF,[4]; [6],85%
same,Concentration of Resveratrol in SF,[4]; [6],59.2 µg/g
CC1=C2C(=O)C=C(CO)[C@@H]2[C@H]2OC(=O)[C@@H](C)[C@@H]2[C@H](OC(=O)Cc2ccc(O)cc2)C1 [dihydrolactucopicrin],% of compound sorbed by soybean flour from chicory root extract (percent decrease in peak area),[2],80%
O=c1c(O)c(-c2ccc(O)c(O)c2)oc2cc(O)cc(O)c12 [Quercetin],Quercetin in Grape Juice,[5]; Concord grape juice 50 mL after soybean flour 30 g/L,519 ng/mL
same,% Quercetin Sorbed to SF,[5],74%
same,Concentration of Quercetin in Soybean flour,[5],49.3 µg/g
same,% Quercetin Sorbed to SF,[5]; listed as quercetin,about 74%
same,Concentration of Quercetin in Soybean flour,[5]; listed as quercetin,approximately 49.3 μg/g
